How the values were obtained:
lipoamide = compound: NC(=O)CCCCC1CCSS1 [lipoamide]; test: thermal stability z-score vs DMSO; higher = more thermally stabilized by treatment; conditions: HeLa, lipoamide concentration 100 µM
Method: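 Cellular thermal proteome profiling in HeLa cells. Cells were treated with 100 µM lipoamide for 1 h, with or without 1 mM arsenate for a further 1 h, then heated to ten temperatures (37-66.3 °C), and soluble protein was quantified by TMT mass spectrometry relative to 0.1% DMSO controls. The thermal stability score (sum of log2 fold changes minus the abundance score) was transformed to a z-score; mean of n = 3 experiments.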

potassium arsenate = compound: O=[As]([O-])(O)O.[K+] [potassium arsenate]; test: as above; conditions: HeLa; arsenate concentration 1 mM
Method: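 Cellular thermal proteome profiling in HeLa cells treated with 1 mM arsenate for 1 h (DMSO pretreatment), heated to ten temperatures (37-66.3 °C). Soluble protein was quantified by TMT mass spectrometry relative to DMSO controls; the thermal stability score was transformed to a z-score; mean of n = 3 experiments.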

[1] = arsenate co-treatment: 1 mM arsenate 1 h
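Also: each temperature applied for 3 min, abundance score taken as mean log2 fold change at the two lowest temperatures, z-score obtained by mean subtraction and division by SD.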

UniProt P45985, sequence (P45985 whole entry): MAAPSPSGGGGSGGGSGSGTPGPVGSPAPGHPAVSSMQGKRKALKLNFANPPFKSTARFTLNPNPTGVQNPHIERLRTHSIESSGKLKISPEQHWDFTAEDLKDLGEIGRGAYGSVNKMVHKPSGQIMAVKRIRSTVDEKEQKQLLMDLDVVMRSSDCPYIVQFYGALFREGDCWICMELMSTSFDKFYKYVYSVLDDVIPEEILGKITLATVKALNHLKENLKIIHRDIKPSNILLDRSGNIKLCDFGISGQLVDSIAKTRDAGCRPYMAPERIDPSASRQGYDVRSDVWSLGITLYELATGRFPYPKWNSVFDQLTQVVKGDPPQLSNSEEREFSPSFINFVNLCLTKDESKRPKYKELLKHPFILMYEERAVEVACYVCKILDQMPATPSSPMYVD
UniProt Q8IWC1, sequence (Q8IWC1 whole entry): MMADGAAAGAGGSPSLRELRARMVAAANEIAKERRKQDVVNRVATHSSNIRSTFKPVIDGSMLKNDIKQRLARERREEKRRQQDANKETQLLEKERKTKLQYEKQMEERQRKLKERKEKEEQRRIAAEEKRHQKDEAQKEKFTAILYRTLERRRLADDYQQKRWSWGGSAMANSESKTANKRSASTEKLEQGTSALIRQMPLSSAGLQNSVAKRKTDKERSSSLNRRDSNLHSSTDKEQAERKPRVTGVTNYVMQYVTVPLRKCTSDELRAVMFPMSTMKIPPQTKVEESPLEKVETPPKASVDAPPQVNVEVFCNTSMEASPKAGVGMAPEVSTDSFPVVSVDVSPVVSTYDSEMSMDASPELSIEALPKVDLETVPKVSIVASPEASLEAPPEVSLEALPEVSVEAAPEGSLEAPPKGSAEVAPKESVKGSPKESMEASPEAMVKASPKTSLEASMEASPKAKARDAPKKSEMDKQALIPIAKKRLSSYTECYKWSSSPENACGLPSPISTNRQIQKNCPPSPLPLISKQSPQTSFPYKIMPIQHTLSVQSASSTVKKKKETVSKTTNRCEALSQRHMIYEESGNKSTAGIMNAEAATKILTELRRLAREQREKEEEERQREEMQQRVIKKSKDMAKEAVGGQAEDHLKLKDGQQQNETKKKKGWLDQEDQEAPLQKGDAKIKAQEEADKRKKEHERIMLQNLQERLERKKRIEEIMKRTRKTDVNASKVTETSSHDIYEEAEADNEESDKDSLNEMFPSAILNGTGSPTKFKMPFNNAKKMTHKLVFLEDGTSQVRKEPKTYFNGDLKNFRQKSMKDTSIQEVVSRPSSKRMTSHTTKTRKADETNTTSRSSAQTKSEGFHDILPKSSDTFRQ
UniProt P43355, sequence (P43355 whole entry): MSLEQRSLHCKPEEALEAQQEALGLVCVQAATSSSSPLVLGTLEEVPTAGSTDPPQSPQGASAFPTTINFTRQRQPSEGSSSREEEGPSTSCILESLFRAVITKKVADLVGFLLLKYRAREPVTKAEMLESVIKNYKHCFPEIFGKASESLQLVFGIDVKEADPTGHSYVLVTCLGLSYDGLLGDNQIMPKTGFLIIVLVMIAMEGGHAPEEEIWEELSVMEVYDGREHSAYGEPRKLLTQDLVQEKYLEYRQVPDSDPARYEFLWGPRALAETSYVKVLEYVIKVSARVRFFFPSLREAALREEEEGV
UniProt Q9NX47, sequence (Q9NX47 whole entry): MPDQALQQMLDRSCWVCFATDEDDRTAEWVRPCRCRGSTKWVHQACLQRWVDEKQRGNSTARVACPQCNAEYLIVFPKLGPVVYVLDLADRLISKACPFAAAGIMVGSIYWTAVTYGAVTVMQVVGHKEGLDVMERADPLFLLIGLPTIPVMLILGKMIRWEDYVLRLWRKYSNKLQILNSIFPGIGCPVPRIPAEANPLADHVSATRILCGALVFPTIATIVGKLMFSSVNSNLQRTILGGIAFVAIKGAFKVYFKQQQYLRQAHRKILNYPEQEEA
UniProt P45984, sequence (P45984 whole entry, looked up): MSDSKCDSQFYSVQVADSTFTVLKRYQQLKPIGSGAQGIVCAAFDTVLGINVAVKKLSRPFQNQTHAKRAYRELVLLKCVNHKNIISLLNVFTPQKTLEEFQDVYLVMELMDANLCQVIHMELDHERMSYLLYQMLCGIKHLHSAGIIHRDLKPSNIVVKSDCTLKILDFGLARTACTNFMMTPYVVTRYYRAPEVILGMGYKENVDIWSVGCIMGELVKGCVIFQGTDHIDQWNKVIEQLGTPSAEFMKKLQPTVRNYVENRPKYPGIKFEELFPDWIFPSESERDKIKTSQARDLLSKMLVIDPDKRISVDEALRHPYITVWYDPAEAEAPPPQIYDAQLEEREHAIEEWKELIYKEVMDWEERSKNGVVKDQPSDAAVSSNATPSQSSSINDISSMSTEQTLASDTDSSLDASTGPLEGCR
UniProt Q9HD34, sequence (Q9HD34 whole entry): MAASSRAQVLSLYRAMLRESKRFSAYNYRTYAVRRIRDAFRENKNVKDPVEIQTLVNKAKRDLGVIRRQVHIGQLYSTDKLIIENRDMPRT
UniProt Q5U5X0, sequence (Q5U5X0 whole entry): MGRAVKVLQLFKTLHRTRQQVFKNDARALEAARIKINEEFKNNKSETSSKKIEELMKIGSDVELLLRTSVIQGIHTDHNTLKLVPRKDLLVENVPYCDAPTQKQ
UniProt P29966, sequence (P29966 whole entry): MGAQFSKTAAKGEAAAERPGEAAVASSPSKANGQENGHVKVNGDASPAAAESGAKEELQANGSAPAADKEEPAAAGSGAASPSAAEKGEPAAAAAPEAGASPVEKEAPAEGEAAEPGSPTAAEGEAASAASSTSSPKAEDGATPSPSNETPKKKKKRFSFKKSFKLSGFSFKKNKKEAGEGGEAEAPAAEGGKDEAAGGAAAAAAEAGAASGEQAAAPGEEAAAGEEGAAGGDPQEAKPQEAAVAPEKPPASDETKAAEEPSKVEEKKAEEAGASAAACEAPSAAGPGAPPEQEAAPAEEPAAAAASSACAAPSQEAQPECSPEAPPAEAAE
UniProt Q9Y4K4, sequence (Q9Y4K4 whole entry, looked up): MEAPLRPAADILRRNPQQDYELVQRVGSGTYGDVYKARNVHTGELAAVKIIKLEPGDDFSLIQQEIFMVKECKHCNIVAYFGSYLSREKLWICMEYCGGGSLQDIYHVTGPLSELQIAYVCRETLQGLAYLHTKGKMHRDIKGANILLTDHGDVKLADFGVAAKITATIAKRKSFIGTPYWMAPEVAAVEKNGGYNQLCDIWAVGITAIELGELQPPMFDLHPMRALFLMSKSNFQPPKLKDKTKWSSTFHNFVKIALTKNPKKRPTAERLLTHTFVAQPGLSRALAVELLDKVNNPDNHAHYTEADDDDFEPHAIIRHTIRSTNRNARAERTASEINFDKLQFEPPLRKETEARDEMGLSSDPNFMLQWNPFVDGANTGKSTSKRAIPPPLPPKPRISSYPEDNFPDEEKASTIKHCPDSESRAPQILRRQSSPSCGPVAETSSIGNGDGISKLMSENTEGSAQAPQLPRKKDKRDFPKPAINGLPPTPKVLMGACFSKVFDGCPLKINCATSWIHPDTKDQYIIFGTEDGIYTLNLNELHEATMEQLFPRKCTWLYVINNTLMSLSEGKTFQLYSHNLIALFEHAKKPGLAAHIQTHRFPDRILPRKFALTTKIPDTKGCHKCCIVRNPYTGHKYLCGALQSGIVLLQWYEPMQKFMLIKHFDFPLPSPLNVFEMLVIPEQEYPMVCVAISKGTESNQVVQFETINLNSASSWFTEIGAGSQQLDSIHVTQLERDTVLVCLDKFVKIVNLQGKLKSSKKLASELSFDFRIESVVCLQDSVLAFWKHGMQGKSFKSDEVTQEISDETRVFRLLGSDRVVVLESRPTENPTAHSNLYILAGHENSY
UniProt Q8N653, sequence (Q8N653 whole entry): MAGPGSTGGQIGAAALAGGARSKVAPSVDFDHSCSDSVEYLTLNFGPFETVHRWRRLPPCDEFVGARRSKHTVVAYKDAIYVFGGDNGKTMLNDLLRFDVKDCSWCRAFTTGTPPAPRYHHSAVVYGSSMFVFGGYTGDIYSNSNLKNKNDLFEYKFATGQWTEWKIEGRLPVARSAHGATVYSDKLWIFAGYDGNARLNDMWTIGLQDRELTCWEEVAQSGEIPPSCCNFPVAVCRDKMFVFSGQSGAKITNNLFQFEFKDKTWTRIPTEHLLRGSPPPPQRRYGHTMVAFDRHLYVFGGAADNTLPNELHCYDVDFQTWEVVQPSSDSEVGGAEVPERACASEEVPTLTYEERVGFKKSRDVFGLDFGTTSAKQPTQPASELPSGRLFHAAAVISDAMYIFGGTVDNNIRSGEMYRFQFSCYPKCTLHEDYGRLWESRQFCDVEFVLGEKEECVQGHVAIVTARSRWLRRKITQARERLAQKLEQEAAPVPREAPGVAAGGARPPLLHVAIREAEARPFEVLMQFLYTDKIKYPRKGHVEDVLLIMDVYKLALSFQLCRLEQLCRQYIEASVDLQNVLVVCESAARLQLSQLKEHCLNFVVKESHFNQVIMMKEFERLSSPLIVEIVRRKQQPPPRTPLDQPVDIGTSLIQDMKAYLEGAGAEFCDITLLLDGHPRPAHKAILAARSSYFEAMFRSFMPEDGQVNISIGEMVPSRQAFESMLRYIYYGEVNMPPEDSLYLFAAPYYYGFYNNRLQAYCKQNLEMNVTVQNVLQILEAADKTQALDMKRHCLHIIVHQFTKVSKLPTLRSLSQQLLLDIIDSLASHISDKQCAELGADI
UniProt Q16539, sequence (Q16539 whole entry): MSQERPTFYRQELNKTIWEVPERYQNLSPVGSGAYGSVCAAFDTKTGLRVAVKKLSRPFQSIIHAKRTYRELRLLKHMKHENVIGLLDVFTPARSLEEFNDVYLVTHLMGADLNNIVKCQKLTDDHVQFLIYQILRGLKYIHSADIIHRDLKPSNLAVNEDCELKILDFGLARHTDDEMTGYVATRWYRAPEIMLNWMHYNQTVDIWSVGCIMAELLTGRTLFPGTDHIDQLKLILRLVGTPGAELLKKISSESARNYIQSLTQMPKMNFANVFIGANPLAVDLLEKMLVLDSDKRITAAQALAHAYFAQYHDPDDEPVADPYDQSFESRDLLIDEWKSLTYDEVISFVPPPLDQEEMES
UniProt Q9NQG1, sequence (Q9NQG1 whole entry): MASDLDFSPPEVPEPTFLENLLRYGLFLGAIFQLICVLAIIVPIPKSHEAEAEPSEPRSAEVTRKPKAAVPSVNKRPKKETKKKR

Target	thermal stability z-score (lipoamide; [1])	thermal stability z-score (lipoamide; arsenate co-treatment: none)	thermal stability z-score (potassium arsenate)
LYRM4 (UniProt Q9HD34)	-0.401	0.0692	-0.348
LYRM7 (UniProt Q5U5X0)	0.507	0.358	-0.0732
LYSMD1 (UniProt Q96S90)	1.23	0.621	0.777
LYSMD2 (UniProt Q8IV50)	1.24	0.886	1.46
LZIC (UniProt Q8WZA0)	0.558	0.781	0.906
LZTFL1 (UniProt Q9NQ48)	0.0385	0.0985	-0.312
LZTR1 (UniProt Q8N653)	-0.12	0.0373	-0.137
M6PR (UniProt P20645)	0.401	-0.0131	0.167
MACF1	-0.0421	-0.0441	-0.308
MACROD1 (UniProt Q9BQ69)	1.61	0.262	1.33
MAD1L1 (UniProt Q9Y6D9)	2.13	0.887	1.62
MAD2L1 (UniProt Q13257)	-0.109	-0.147	1.96
MAD2L2 (UniProt Q9UI95)	-0.137	0.037	-0.211
MADD (UniProt Q8WXG6)	0.198	1.4	1.3
MAEA (UniProt Q7L5Y9)	-0.402	-0.993	-0.343
MAF1 (UniProt Q9H063)	-0.0772	-0.00412	-0.373
MAGEA1 (UniProt P43355)	0.195	0.0019	1.03
MAGED2 (UniProt Q9UNF1)	-0.0801	0.24	0.741
MAGOH|MAGOHB	0.0953	0.171	0.0412
MAGT1 (UniProt Q9H0U3)	-3.45	-2.9	0.251
MALSU1 (UniProt Q96EH3)	-1.47	-1.5	-1.01
MALT1 (UniProt Q9UDY8)	-0.539	0.249	0.37
MAML1 (UniProt Q92585)	0.141	0.017	1.03
MAMLD1 (UniProt Q13495)	0.0249	0.146	0.345

Target	thermal stability z-score (lipoamide; [1])	thermal stability z-score (lipoamide; arsenate co-treatment: none)	thermal stability z-score (potassium arsenate)
MAN1A1 (UniProt P33908)	0.547	0.362	0.104
MAN1A2 (UniProt O60476)	-0.432	-0.498	-0.352
MAN1B1 (UniProt Q9UKM7)	-0.361	-0.286	0.103
MAN2A1 (UniProt Q16706)	-0.502	-0.428	-0.264
MAN2B1 (UniProt O00754)	-1.18	-0.63	-0.312
MANBA (UniProt O00462)	-1.33	-1.4	-0.726
MANBAL (UniProt Q9NQG1)	1.06	1.59	0.0493
MANEAL (UniProt Q5VSG8)	-0.276	0.109	0.736
MANF (UniProt P55145)	0.0932	-0.0959	0.0791
MAP1LC3B2|MAP1LC3B	0.0751	0.888	0.485
MAP1S (UniProt Q66K74)	-0.223	-0.342	-0.318
MAP2K1 (UniProt Q02750)	-0.382	-0.187	-0.118
MAP2K2 (UniProt P36507)	-0.441	-0.022	0.0169
MAP2K3 (UniProt P46734)	-0.4	-0.138	0.235
MAP2K4 (UniProt P45985)	-0.37	0.139	-0.444
MAP2K6 (UniProt P52564)	-0.0718	0.061	-0.021
MAP2K7 (UniProt O14733)	-0.121	0.341	0.54
MAP3K2 (UniProt Q9Y2U5)	0.15	-0.461	-0.71
MAP3K6 (UniProt O95382)	0.0331	-0.0259	-0.0305
MAP3K7 (UniProt O43318)	0.164	0.123	0.066
MAP4 (UniProt P27816)	0.0996	0.243	-0.384
MAP4K3 (UniProt Q8IVH8)	0.23	-0.0792	0.139
MAP4K4 (UniProt O95819)	-0.599	-0.0959	0.303
MAP4K5 (UniProt Q9Y4K4)	-0.212	0.00139	0.00285

Target	thermal stability z-score (lipoamide; [1])	thermal stability z-score (lipoamide; arsenate co-treatment: none)	thermal stability z-score (potassium arsenate)
MAP7 (UniProt Q14244)	0.478	-0.183	-0.779
MAP7D1 (UniProt Q3KQU3)	0.172	-0.0726	-0.702
MAP7D3 (UniProt Q8IWC1)	-0.18	-0.509	-1.36
MAPK1 (UniProt P28482)	0.246	-0.0239	-0.175
MAPK3 (UniProt P27361)	-0.115	-0.114	-0.214
MAPK7 (UniProt Q13164)	0.0307	0.141	0.334
MAPK8 (UniProt P45983)	0.24	0.00773	-0.00139
MAPK9 (UniProt P45984)	0.00773	-0.817	-0.98
MAPK14 (UniProt Q16539)	0.87	-0.0481	0.772
MAPKAP1 (UniProt Q9BPZ7)	0.13	-0.0501	0.0626
MAPKAPK2 (UniProt P49137)	0.451	0.459	0.48
MAPKAPK3 (UniProt Q16644)	-0.203	-0.362	-0.508
MAPRE1 (UniProt Q15691)	0.796	0.705	0.154
MAPRE2 (UniProt Q15555)	-0.858	0.732	1.11
MAPRE3 (UniProt Q9UPY8)	0.142	-0.216	-0.102
MARC1 (UniProt Q5VT66)	0.204	0.806	1.12
MARC2 (UniProt Q969Z3)	0.235	0.311	0.168
MARCH5 (UniProt Q9NX47)	0.842	-0.0503	0.411
MARCH6 (UniProt O60337)	-0.245	-0.44	-0.855
MARCKS (UniProt P29966)	0.62	0.121	0.943
MARCKSL1 (UniProt P49006)	0.667	0.788	0.248
MARK1 (UniProt Q9P0L2)	-0.126	-0.153	0.249
MARK2 (UniProt Q7KZI7)	-0.0322	0.0698	0.0503

— the supplement of paper PMC12463676, “Small-molecule dissolution of stress granules by redox modulation benefits ALS models” (Nature Chemical Biology, 2025)
